From publication PMC9469100, “Turning Nonselective Inhibitors of Type I Protein Arginine Methyltransferases into Potent and Selective Inhibitors of Protein Arginine Methyltransferase 4 through a Deconstruction–Reconstruction and Fragment-Growing Approach” (Journal of Medicinal Chemistry, 2022)
Like-named read-outs stand apart in the source and are kept apart here.

Experiments:
[1] = biological target: T1, human PRMT4 (full length) (Homo sapiens, UniProt Q86X55); assay: SPR binding to immobilized PRMT4; settings: for koff / kon: immobilized PRMT4; for kon: read-out: kon; for τR: in vitro residence time, τ = 1/koff
T1 construct: Full-length recombinant PRMT4 (Active motif, # 81107); purchased Active motif # 81107
T1 sequence (Q86X55 1-608): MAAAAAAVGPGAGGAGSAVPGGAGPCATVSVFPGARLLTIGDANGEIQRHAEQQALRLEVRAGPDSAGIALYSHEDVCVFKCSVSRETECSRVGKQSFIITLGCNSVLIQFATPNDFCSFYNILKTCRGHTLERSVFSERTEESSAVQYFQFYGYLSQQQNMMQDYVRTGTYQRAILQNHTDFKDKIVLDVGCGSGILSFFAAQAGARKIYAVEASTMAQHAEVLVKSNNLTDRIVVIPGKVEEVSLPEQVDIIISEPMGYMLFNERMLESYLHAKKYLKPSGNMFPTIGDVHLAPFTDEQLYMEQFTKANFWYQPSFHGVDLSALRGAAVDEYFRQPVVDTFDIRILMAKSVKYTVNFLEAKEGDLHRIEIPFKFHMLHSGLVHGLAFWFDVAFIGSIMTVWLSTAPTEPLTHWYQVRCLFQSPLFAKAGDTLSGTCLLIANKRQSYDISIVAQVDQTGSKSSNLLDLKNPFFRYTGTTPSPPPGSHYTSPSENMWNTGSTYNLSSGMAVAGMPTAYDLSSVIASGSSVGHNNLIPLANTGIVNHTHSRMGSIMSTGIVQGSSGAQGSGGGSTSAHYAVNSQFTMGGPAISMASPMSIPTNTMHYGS
Experimental: To this aim, human PRMT4 (full length) was covalently immobilized on a sensor chip surface using an amine-coupling approach, and the three compounds were injected at different concentrations over the protein surface. To reduce false positives from detergent-sensitive, nonspecific aggregation-based binding, detergents (0.05% Tween-20) were added to the running buffer in all experiments.
SPR experiments were performed on a Biacore T200 biosensor (Cytiva). PBS buffer (phosphate-buffered saline, pH 7.4) supplemented with 0.05% Tween-20 was used as the running buffer. […] One flow cell was left empty for background subtractions. […] Each compound was tested in […], prepared starting from 640 to 10 nM. Binding experiments were performed at 25 °C by using a flow rate of 30 μL/min, with 90 s monitoring of association and 90 s monitoring of dissociation. Regeneration of the surfaces was performed, when necessary, by a 10 s injection of 5 mM NaOH. […] The corrected sensorgrams for each compound were fitted simultaneously using a 1:1 Langmuir model to obtain equilibrium dissociation constants (KD) and kinetic dissociation (koff) and association (kon) constants.

PRMT3 = PRMT3 (Homo sapiens, UniProt O60678); assay: Radioisotope-based filter-binding (HotSpot) assay, PRMT3
Experimental: (§1) Then, ^3H-SAM (final concentration 1 μM) was delivered into the reaction mixture to initiate the reaction. After incubation for 60 min at 30 °C, the reaction mixture was delivered to filter paper for detection (as assessed by scintillation). Data were analyzed using Excel and GraphPad Prism 6.0 software (GraphPad Software Inc., San Diego, CA) for IC50 curve fits using sigmoidal dose vs response-variable slope (four parameters) equations.

PRMT6 = PRMT6 (Homo sapiens, UniProt Q96LA8); assay: Radioisotope-based filter-binding (HotSpot) assay, PRMT6
Experimental: as §1

PRMT7 = biological target: T2, PRMT7 (Homo sapiens, UniProt Q9NVM4); assay: Radioisotope-based filter-binding (HotSpot) assay, PRMT7
T2 sequence (Q9NVM4 2-692): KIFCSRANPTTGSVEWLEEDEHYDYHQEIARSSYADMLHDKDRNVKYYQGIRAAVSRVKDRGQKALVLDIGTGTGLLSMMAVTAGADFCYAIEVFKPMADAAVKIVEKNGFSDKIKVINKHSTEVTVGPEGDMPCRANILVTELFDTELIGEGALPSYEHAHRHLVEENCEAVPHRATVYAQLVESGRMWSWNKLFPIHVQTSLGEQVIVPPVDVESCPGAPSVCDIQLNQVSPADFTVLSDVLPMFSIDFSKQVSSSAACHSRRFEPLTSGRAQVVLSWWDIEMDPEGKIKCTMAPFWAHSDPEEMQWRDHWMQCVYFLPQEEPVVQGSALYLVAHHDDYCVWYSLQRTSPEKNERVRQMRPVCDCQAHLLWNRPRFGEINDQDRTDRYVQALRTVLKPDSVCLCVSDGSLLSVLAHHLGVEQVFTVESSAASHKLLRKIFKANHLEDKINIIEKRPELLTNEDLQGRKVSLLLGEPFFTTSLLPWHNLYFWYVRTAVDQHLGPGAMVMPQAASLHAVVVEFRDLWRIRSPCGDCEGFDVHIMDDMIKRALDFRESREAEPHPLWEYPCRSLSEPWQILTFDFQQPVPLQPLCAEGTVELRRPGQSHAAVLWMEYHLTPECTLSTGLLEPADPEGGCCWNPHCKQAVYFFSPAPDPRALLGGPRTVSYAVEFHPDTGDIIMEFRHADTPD
Experimental: as §1

PRMT4 = biological target: T3, PRMT4 (Homo sapiens, UniProt Q86X55); assay: Radioisotope-based filter-binding (HotSpot) assay, PRMT4
T3 sequence (Q86X55 2-608): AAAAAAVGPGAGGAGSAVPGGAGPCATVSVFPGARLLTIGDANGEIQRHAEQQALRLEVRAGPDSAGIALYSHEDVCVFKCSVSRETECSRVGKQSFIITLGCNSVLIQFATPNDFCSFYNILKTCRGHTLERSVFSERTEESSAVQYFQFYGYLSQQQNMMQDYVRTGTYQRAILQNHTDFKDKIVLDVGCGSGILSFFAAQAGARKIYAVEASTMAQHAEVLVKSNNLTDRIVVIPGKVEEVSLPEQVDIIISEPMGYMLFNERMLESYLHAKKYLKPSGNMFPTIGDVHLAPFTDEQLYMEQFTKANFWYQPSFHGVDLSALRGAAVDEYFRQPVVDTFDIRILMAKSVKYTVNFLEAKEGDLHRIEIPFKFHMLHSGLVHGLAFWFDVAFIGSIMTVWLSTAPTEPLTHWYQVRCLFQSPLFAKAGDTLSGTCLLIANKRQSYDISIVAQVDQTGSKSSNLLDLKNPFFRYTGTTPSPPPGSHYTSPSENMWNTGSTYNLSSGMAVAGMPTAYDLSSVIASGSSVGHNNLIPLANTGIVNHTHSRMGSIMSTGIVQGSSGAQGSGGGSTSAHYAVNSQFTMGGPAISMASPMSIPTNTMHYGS
Experimental: as §1

PRMT5/MEP50 complex = PRMT5/MEP50 complex (Homo sapiens, UniProt O14744); assay: Radioisotope-based filter-binding (HotSpot) assay, PRMT5
Experimental: as §1

ΔN(1–60)-PRMT8 = ΔN(1–60)-PRMT8 (Homo sapiens, UniProt Q9NR22); assay: Radioisotope-based filter-binding (HotSpot) assay, PRMT8
Experimental: as §1

ASH1L = biological target: T4, ASH1L (Homo sapiens, UniProt Q9NR48); assay: HotSpot KMT activity assay, ASH1L; type: biochemical
T4 construct: ASH1L (residues 2046–2330, with an N-terminal His-tag); His (N); purchased Reaction Biology Corporation
Experimental: Then, ^3H-SAM (final concentration 1 μM) was delivered into the reaction mixture to initiate the reaction. After incubation for 60 min at 30 °C, the reaction mixture was delivered to filter-paper for detection (as assessed by scintillation). […] No inhibitor control (DMSO) was considered as 100% enzyme activity. Data were analyzed using Excel and GraphPad Prism 6.0 software (GraphPad Software Inc., San Diego, CA). Values obtained for each compound are mean ± SD determined for two separate experiments.

[2] = Parallel artificial membrane permeability assay (PAMPA); type: in vitro ADME; settings: phosphate buffer pH 7.4, donor 0.2 mM, 24 h at room temperature
Experimental: A donor solution (0.2 mM) was prepared by diluting 20 mM dimethyl sulfoxide (DMSO) compound stock solution using phosphate buffer (pH 7.4, 0.01 M). Filters were coated with 5 μL of a 1% (w/v) dodecane solution of L-α-phosphatidylcholine. Donor solution (150 μL) was added to each well of the filter plate. To each well of the acceptor plate, 300 μL of solution (5% DMSO in phosphate buffer) was added. […] The sandwich was incubated for 24 h at room temperature under gentle shaking. After the incubation time, the sandwich plates were separated, and 250 μL of the acceptor plate was transferred to a UV quartz microtiter plate and measured by UV spectroscopy, using a Multiskan GO microplate spectrophotometer (Thermo Fisher Scientific) at 250–500 nm at a step of 5 nm. Reference solutions (250 μL) were prepared diluting the sample stock solutions to the same concentration as that with no membrane barrier.

PRMT1 = PRMT1 (Homo sapiens, UniProt Q99873); assay: AlphaLISA PRMT1 activity assay (H4R3me)
Experimental: Then, we resolved to determine their effect on the catalytic activity of human recombinant PRMT1, chosen as representative of class I PRMTs. […] PRMT1 activity assays were performed by taking advantage of the AlphaLISA homogeneous proximity assay.
The reaction was incubated for 60 min, and then it was stopped by the addition of 5 μL of antimethyl-histone H4 arginine 3 (H4R3me) AlphaLISA acceptor beads (PerkinElmer, #AL150) (final concentration, 20 μg/mL) diluted in Epigenetic Buffer 1X (PerkinElmer, #AL008).
For each incubation step, the OptiPlate was sealed with protective foil to prevent evaporation and contamination. Donor and acceptor beads were added in subdued light.
The 100% activity (positive control) was reached using the vehicle (DMSO) while the 0% activity (negative control) was obtained without the protein. Data were analyzed using Excel software. Values obtained for each compound are mean ± SD determined for three separate experiments.

[3] = read-out: IC50 (μM) PRMT3, radioisotope-based filter assay, 5 μM histone H4, 1 μM 3H-SAM
[4] = read-out: IC50 (μM) PRMT6, radioisotope-based filter assay, 5 μM GST-GAR, 1 μM 3H-SAM
[5] = read-out: IC50 (μM) PRMT5, radioisotope-based filter assay, 5 μM histone H2A, 1 μM 3H-SAM
[6] = IC50 (μM) PRMT7, radioisotope-based filter assay, 5 μM GST-GAR, 1 μM 3H-SAM
[7] = on increasing the linker between 4-hydroxy-2-naphthoate and guanidine (values equal the ratio to the IC50 of 12c)
[8] = read-out: % PRMT1 residual activ. @ 100 μM
[9] = read-out: % PRMT1 residual activity at 100 uM

Sequence of PRMT3 (O60678 2-531): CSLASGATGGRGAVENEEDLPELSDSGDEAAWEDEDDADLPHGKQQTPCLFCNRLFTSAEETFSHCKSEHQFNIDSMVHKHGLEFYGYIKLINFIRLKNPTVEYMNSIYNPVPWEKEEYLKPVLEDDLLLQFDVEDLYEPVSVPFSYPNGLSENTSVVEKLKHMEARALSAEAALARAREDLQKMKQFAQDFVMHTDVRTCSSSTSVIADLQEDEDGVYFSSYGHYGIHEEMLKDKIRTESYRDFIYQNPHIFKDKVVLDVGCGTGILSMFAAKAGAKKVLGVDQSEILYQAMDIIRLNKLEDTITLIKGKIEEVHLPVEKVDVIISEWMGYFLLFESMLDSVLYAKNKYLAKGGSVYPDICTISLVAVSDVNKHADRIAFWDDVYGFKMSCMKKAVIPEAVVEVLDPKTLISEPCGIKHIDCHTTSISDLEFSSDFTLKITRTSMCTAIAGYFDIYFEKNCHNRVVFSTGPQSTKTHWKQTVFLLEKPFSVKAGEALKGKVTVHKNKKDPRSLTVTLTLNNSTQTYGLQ
Sequence of PRMT5/MEP50 complex (O14744 2-637): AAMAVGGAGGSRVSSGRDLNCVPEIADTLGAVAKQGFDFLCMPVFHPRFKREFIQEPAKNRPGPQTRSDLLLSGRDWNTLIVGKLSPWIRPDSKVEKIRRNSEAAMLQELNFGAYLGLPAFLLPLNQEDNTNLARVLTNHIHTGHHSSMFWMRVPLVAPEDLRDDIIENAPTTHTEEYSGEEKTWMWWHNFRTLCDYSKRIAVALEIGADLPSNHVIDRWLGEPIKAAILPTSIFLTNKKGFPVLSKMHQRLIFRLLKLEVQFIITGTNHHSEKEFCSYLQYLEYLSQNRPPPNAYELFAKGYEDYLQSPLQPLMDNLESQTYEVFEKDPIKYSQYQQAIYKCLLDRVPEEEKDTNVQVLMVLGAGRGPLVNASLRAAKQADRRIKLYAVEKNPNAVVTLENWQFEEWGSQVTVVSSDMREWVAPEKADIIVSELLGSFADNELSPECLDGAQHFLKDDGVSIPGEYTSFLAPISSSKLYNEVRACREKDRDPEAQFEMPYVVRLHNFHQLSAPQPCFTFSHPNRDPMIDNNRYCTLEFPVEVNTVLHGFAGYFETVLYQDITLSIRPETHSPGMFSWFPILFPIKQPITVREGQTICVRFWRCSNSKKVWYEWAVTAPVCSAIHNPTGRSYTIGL
Sequence of PRMT5/MEP50 complex (Q9BQA1 2-342 partner limits assumed): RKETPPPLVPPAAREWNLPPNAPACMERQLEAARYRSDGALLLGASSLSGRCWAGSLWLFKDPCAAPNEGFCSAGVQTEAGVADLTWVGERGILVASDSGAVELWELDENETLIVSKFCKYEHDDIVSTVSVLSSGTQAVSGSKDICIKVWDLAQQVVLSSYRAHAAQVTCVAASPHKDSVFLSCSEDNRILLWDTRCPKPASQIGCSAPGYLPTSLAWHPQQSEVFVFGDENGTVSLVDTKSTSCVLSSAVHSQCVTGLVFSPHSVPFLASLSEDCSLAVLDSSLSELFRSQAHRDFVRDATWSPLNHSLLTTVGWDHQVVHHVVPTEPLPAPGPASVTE
Sequence of PRMT1 (Q99873 whole entry): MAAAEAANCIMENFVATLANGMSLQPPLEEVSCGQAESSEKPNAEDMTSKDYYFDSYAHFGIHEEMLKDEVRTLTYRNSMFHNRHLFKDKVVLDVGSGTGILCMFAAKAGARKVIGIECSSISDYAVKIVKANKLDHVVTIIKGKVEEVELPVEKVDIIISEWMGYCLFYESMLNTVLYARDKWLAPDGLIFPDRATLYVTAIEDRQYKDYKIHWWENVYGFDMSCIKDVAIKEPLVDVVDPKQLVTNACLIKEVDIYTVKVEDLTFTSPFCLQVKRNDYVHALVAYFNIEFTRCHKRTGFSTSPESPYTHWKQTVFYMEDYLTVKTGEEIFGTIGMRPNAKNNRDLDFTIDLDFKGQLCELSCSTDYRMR
Sequence of PRMT6 (Q96LA8 2-375): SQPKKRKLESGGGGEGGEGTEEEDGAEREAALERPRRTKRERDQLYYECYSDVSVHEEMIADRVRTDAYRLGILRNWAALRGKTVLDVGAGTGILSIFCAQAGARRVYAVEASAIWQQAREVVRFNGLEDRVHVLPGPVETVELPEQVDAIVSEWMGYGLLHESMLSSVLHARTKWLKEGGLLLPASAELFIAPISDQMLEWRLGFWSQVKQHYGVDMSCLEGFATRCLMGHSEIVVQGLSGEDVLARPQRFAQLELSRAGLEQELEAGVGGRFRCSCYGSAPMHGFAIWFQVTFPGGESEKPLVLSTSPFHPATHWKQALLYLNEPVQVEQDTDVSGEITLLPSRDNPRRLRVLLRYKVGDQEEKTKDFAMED
Sequence of ΔN(1–60)-PRMT8 (Q9NR22 61-394, stated change not applied): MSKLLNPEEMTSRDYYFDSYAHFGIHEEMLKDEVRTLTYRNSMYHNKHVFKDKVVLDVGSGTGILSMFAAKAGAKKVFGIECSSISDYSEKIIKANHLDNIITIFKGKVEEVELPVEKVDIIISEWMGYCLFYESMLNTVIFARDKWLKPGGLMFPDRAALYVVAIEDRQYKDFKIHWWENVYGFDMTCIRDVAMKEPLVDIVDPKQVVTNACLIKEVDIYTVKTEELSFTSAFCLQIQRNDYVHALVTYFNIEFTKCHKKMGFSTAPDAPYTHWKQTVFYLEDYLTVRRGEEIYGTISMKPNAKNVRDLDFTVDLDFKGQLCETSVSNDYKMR

## C[S+](CC[C@H](N)C(=O)[O-])C[C@H]1O[C@@H](n2cnc3c(N)ncnc32)[C@H](O)[C@@H]1O (stereo partly drawn) [SAM, S-adenosyl-L-methionine, reference compound]
[1]
  Kd: 9.6 nM
  τR: 333.3 s
[1]; SPR
  koff: 0.003 s⁻¹
  kon: 290000 M⁻¹ s⁻¹

## COC(=O)c1cc(O)c2cc(NC(=O)NCCCCNC(=N)NC[C@H]3O[C@@H](n4cnc5c(N)ncnc54)[C@H](O)[C@@H]3O)ccc2c1 [12b, Methyl 6-(3-(4-(3-(((2R,3S,4R,5R)-5-(6-Amino-9H-purin-9-yl)-3,4-dihydroxytetrahydrofuran-2-yl)methyl)guanidino)butyl)ureido)-4-hydroxy-2-naphthoate]
PRMT3; [3]
  IC50: 43.4 µM
PRMT6; [4]
  IC50: > 100 µM
PRMT7; read-out: IC50 (μM) PRMT7, radioisotope-based filter assay, 5 μM GST-GAR, 1 μM 3H-SAM
  IC50: 0.55 µM
PRMT4; read-out: IC50 (μM) PRMT4, radioisotope-based filter assay, 5 μM histone H3, 1 μM 3H-SAM
  IC50: 2.14 µM
PRMT4; read-out: IC50 PRMT4 (Figure 5 heatmap), radioisotope-based filter assay
  IC50: 2.14 µM
PRMT5/MEP50 complex; [5]
  IC50: 76.7 µM
[1]; SPR
  koff: 0.015 s⁻¹
  kon: 6520 M⁻¹ s⁻¹
[1]; SPR, immobilized PRMT4, 25 °C, KD from ratio koff/kon
  Kd: 2300 nM
[1]
  τR: 66.7 s
ΔN(1–60)-PRMT8; read-out: IC50 (μM) PRMT8, 5 μM histone H4, 1 μM 3H-SAM
  IC50: 18.7 µM

## COC(=O)c1cc(O)c2cc(NC(=O)NCCCNC(=N)NC[C@H]3O[C@@H](n4cnc5c(N)ncnc54)[C@H](O)[C@@H]3O)ccc2c1 [12a, Methyl 6-(3-(3-(3-(((2R,3S,4R,5R)-5-(6-Amino-9H-purin-9-yl)-3,4-dihydroxytetrahydrofuran-2-yl)methyl)guanidino)propyl)ureido)-4-hydroxy-2-naphthoate]
PRMT3; [3]
  IC50: 57.2 µM
PRMT6; [4]
  IC50: 72.8 µM
PRMT7; [6]
  IC50: 0.3 µM
PRMT7; read-out: IC50 PRMT7 (Figure 5 heatmap), radioisotope-based filter assay
  IC50: 0.315 µM
PRMT5/MEP50 complex; [5]
  IC50: 52.1 µM
ΔN(1–60)-PRMT8; read-out: IC50 PRMT8 (Figure 5 heatmap)
  IC50: 8.29 µM

## CN1C(=O)[C@@]23C[C@]4([C@]56C[C@@]78SS[C@@](CO)(C(=O)N7[C@H]5Nc5ccccc56)N(C)C8=O)c5ccccc5N[C@@H]4N2C(=O)[C@]1(CO)SS3 [chaet, chaetocin, reference compound]
ASH1L
  IC50: 140 nM

## COC(=O)c1cc(O)c2cc(NC(=O)NCCCCCCNC(=N)NC[C@H]3O[C@@H](n4cnc5c(N)ncnc54)[C@H](O)[C@@H]3O)ccc2c1 [12d, Methyl 6-(3-(6-(3-(((2R,3S,4R,5R)-5-(6-Amino-9H-purin-9-yl)-3,4-dihydroxytetrahydrofuran-2-yl)methyl)guanidino)hexyl)ureido)-4-hydroxy-2-naphthoate]
PRMT3; IC50 (μM) PRMT3, radioisotope-based filter assay, 5 μM histone H4, 1 μM 3H-SAM
  IC50: 12.2 µM
PRMT3; IC50 PRMT3 (Figure 5 heatmap), radioisotope-based filter assay
  IC50: 12.2 µM
PRMT6
  IC50: 47 µM
PRMT7; [6]
  IC50: 0.41 µM
PRMT7; IC50 PRMT7 (Figure 5 heatmap), radioisotope-based filter assay
  IC50: 0.413 µM
PRMT4; IC50 (μM) PRMT4, radioisotope-based filter assay, 5 μM histone H3, 1 μM 3H-SAM
  IC50: 0.068 µM
PRMT4; IC50 PRMT4 (Figure 5 heatmap), radioisotope-based filter assay
  IC50: 0.061 µM
PRMT4; [7]
  gain in the inhibitory activity against PRMT4: 6.2 fold
PRMT5/MEP50 complex
  IC50: 2.6 µM
PRMT5/MEP50 complex; [7]
  gain in the inhibitory activity against PRMT5: 19.8 fold
[1]
  Kd: 2800 nM
  τR: 1.31 s
[1]; SPR
  koff: 0.76 s⁻¹
  kon: 270000 M⁻¹ s⁻¹

## CC(C)NCC(O)COc1cccc2ccccc12 (stereo not shown) [propranolol, reference compound]
[2]
  Papp at 24 h, 0.2 mM: 6 ×10⁻⁶ cm/s

## N=C(N)NCCCCNC(=O)Nc1ccc2cc(C(=O)O)cc(O)c2c1 [8a, 6-(3-(4-Guanidinobutyl)ureido)-4-hydroxy-2-naphthoic Acid]
PRMT1; [8]
  remaining activity at 100 µM: 31.5 ± 3.1%
PRMT1; [9]
  remaining activity at 100 µM: 31.5 ± 3.1%

## N=C(N)NCCCCCC(=O)Nc1ccc2cc(C(=O)O)cc(O)c2c1 [6b, 6-(6-Guanidinohexanamido)-4-hydroxy-2-naphthoic Acid]
PRMT1; [8]
  remaining activity at 100 µM: 65.9 ± 1%
PRMT1; [9]
  remaining activity at 100 µM: 65.9 ± 1%

## COC(=O)c1cc(O)c2cc(NC(=O)CNC(=O)Nc3ccc(OC)cc3)ccc2c1 [10c, Methyl 4-Hydroxy-6-(2-(3-(4-methoxyphenyl)ureido)acetamido)-2-naphthoate]
PRMT1; [8]
  remaining activity at 100 µM: 87.1 ± 2.9%
PRMT1; [9]
  remaining activity at 100 µM: 87.1 ± 2.9%
